In patent US20260216093A1, “COMPOSITIONS AND METHODS FOR ENHANCED DRUG LOADING INTO LIPID-BASED CARRIERS” (UNIVERSITY OF NOTRE DAME DU LAC, priority 2023, published 2026):

Key:
[1] = test system: Human hepatocellular carcinoma cells (HepG2); assay: CCK-8 cell proliferation assay with Exo-Dox; assay type: cell-based; conditions: 24 h
Description: (§1) Cell viability was assessed using a Cell Counting Kit-8 (CCK-8 assay, Enzo). In brief, 3T3 and HepG2 cells were seeded into a 96-well flat culture plate (Corning). After being cultured overnight, the cells were washed with FBS-free EMEM and incubated with a specific concentration of sEV and exosomal relative in FBS-free medium at 37° C. for 12, 24, 36, or 48 h. The cells were then washed three times with sterilized PBS and incubated with fresh medium containing 10% FBS overnight. The cells were then washed with PBS, and FBS-free EMEM […] before adding assay reagent. After incubation for 20 min at 37° C., the cell proliferation and cytotoxicity were measured by absorbance at 460 nm. The background was measured by 3T3 and HepG2 cells cultured in FBS-free EMEM only.
(§2) The ability of Exo-Dox to inhibit cancer cell proliferation in vitro was then analyzed. Human hepatocellular carcinoma cells (HepG2) and cervical carcinoma cells (Hela) were treated with Exo-Dox for 24 h, while cells without treatment, treated with control sEVs, and D-Cys-GQDs mixed with free Dox are negative controls. Cell viability of all samples was measured by CCK-8 assay. […] Dox-loaded sEVs by sonication method were not included in the cell viability tests due to low yield of loaded sEVs that was caused by the damage of physical structure of sEVs by sonication (FIG. 17A-B).

[2] = test system: cervical carcinoma cells (Hela); assay: CCK-8 cell proliferation assay with Exo-Dox; assay type: cell-based, human; conditions: 24 h
Description: as §1, §2

tau fibrils = tau fibrils (Homo sapiens, UniProt P10636); assay: Tau biosensor seeding (propagation) assay; assay type: cell-based; conditions: inhibitors added 1 h after tau fibrils; D-GQDs 0.1-0.8 μM, Qal:D-GQDs 10:1, 6:1, 3:1; bare Qal 1.5 μM to 9 μM
Description: To study the effect of Qal-D-GQD-Exo on tau propagation, a tau biosensor seeding assay (FIG. 35) was used to investigate whether the Qal-D-GQD-Exo could block the cellular transmission of exogeneous mature tau fibrils using three different ratios of Qal to D-GQDs (10:1, 6:1, and 3:1) and concentrations of D-GQDs at 0.8, 0.4, 0.2, and 0.1 μM.

Chain of tau fibrils (P10636 whole entry): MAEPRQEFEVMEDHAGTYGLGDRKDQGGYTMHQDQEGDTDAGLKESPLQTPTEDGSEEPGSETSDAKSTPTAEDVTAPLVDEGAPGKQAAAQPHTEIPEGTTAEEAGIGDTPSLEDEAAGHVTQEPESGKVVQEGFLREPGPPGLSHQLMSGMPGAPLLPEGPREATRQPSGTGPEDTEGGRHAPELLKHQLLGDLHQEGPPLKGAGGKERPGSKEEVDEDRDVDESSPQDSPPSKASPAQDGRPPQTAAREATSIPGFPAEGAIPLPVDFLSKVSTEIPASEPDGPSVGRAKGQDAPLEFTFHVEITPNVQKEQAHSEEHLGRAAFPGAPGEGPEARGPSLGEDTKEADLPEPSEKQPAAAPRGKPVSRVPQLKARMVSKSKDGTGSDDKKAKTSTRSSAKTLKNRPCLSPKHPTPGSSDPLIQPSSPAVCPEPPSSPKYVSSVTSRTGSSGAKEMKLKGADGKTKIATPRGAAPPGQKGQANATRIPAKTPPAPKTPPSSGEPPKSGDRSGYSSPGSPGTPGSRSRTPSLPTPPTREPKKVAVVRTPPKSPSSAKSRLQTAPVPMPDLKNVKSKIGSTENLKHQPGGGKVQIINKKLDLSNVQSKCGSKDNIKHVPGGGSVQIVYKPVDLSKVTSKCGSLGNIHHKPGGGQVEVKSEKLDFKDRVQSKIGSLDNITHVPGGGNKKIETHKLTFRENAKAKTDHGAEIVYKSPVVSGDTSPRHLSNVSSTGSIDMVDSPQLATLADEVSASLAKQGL

| inhibition of intracellular tau aggregation, at most (tau fibrils) | Compound | inhibition of cell proliferation [1] | inhibition of cell proliferation [2] |
| --- | --- | --- | --- |
|  | COc1cccc2c1C(=O)c1c(O)c3c(c(O)c1C2=O)C[C@@](O)(C(=O)CO)C[C@@H]3O[C@H]1C[C@H](N)[C@H](O)[C@H](C)O1 [free Dox, Doxorubicin] | 28.3±5.2% | 27.7±5.0% |
| did not show any inhibitory efficiency | Qal: tau-specific N-amino peptide (NAP), amino acid sequence CGTHKLTFRASHAVQIVYKGC (SEQ ID NO: 2) |  |  |
